Test results published in publication PMC8082539 (ACS chemical biology, 2021).

Target: T1, apocarotenoid oxygenase ACO from Synechocystis (Synechocystis sp. PCC 6803, UniProt P74334)
T1 sequence (P74334 1-490): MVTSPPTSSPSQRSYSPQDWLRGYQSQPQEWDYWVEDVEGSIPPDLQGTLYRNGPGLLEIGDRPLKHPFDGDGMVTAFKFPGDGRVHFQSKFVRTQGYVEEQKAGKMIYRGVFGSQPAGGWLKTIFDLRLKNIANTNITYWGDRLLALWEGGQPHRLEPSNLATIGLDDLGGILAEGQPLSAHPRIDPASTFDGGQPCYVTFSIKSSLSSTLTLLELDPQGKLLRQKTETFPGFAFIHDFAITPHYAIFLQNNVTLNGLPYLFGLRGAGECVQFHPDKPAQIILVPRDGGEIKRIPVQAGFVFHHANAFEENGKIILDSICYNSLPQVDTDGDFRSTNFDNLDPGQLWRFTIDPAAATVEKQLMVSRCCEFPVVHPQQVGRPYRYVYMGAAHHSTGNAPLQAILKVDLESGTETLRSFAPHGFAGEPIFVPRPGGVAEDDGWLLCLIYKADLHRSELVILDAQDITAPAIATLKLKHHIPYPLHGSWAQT
Test: HPLC at […] nm, UV-visible spectra
Type: biochemical
Conditions: product 3-hydroxy-retinal

CC1=C(/C=C/C(C)=C/C=C/C(C)=C/C=C/C=C(\C)C=O)C(C)(C)C[C@H](O)C1 [3-hydroxy-β-apo-12’-carotenal]
HPLC at 360 nm, UV-visible spectra: first incubated 3-hydroxy-β-apo-12’-carotenal with the bacterial ACO to produce 3-hydroxy-retinal
